Test results as given in US20250101041A1, “POSITIVE ALLOSTERIC MODULATORS OF THE MUSCARINIC ACETYLCHOLINE RECEPTOR M4” (Vanderbilt University, priority 2022, published 2025).

Target: T1, human mAChR M4 (Homo sapiens, UniProt P08173)
T1 construct: expressed in transfected cells; host or cells: CHO-K1 (American Type Culture Collection), stably expressing hM4 and Gqi5
T1 sequence (P08173 1-479): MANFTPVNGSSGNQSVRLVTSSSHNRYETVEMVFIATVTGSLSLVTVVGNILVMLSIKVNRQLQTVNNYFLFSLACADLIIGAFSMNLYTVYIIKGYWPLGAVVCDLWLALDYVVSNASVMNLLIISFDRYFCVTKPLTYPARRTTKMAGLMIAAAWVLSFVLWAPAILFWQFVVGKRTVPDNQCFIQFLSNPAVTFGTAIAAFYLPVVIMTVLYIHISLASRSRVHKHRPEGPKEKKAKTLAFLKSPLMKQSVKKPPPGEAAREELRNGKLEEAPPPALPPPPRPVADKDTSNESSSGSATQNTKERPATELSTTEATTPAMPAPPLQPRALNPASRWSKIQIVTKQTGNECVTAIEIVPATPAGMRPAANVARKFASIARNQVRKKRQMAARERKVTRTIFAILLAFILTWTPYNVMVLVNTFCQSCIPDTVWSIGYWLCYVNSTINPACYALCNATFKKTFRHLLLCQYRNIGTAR
Experiment: mAChR M4 cell-based functional assay: calcium mobilization (Fluo-4, FDSS), potentiation of EC20 acetylcholine response in hM4-Gqi5 CHO-K1 cells
Details: human M4; for Emax at 30 µM: CHO-K1, % ACh maximum at 30 μM; for EC50: potentiation of EC20 acetylcholine response, calcium mobilization
In short: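 CHO-K1 cells stably co-expressing human M4 and chimeric Gqi5, loaded with Fluo-4 AM (50 min, 37 °C). Compounds in 11-point 1:3 series added first; EC20 acetylcholine added at 144 s and again at 230 s. Calcium read on FDSS at 1 Hz; EC50 and Emax from four-parameter logistic fit of potentiated EC20 response.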

SMILES	Emax at 30 µM	EC50
COc1ccccc1-c1cnc2c(c1)CN(c1nn3c(=O)ccnc3c(C)c1C)CC2 [Compound 1-344, 7-(3-(2-methoxyphenyl)-7,8-dihydro-1,6-naphthyridin-6(5H)-yl)-8,9-dimethyl-4H-pyrimido[1,2-b]pyridazin-4-one]	72%	663 nM
Cc1cccnc1-c1cnc2c(c1)CN(c1nn3c(=O)ccnc3cc1C)CC2 [Compound 1-348, 8-methyl-7-(3-(3-methylpyridin-2-yl)-7,8-dihydro-1,6-naphthyridin-6(5H)-yl)-4H-pyrimido[1,2-b]pyridazin-4-one]	68%	2600 nM
CCc1cc(=O)n2nc(N3CCc4ncc(C(F)(F)F)cc4C3)c(C)c(C)c2n1 [Compound 1-105, 2-ethyl-8,9-dimethyl-7-(3-(trifluoromethyl)-7,8-dihydro-1,6-naphthyridin-6(5H)-yl)-4H-pyrimido[1,2-b]pyridazin-4-one]	99%	162 nM
[2H]C1([2H])Cc2ncc(Nc3cccnc3C)cc2C([2H])([2H])N1c1nn2c(=O)ccnc2cc1C [Compound 2-163, 8-methyl-7-(3-((2-methylpyridin-3-yl)amino)-7,8-dihydro-1,6-naphthyridin-6(5H)-yl-5,5,7,7-d4)-4H-pyrimido[1,2-b]pyridazin-4-one]	79%	388 nM
Cc1cc2nccc(=O)n2nc1N1CCc2ncc(-c3cc(F)cc(F)c3C)cc2C1 [Compound 1-447, 7-(3-(3,5-difluoro-2-methylphenyl)-7,8-dihydro-1,6-naphthyridin-6(5H)-yl)-8-methyl-4H-pyrimido [1,2-b]pyridazin-4-one]	83%	191 nM
Cc1cc(=O)n2nc(N3CCc4ncc(-c5ccsc5)cc4C3)c(C)cc2n1 [Compound 1-300, 2,8-dimethyl-7-(3-(thiophen-3-yl)-7,8-dihydro-1,6-naphthyridin-6(5H)-yl)-4H-pyrimido[1,2-b]pyridazin-4-one]	87%	122 nM
Cc1cc(F)ccc1Nc1cnc2c(c1)CN(c1nn3c(=O)ccnc3cc1C)CC2 [Compound 2-65, 7-(3-((4-fluoro-2-methylphenyl)amino)-7,8-dihydro-1,6-naphthyridin-6(5H)-yl)-8-methyl-4H-pyrimido[1,2-b]pyridazin-4-one]	90%	99 nM
Cc1cc2nc(C(=O)NC3(C#N)CC3)cc(=O)n2nc1N1CCc2ncc(C(F)(F)F)cc2C1 [Compound 1-46, N-(1-cyanocyclopropyl)-8-methyl-4-oxo-7-(3-(trifluoromethyl)-7,8-dihydro-1,6-naphthyridin-6(5H)-yl)-4H-pyrimido[1,2-b]pyridazine-2-carboxamide]	99%	118 nM
Cc1ccc(-c2cnc3c(c2)CN(c2nn4c(=O)ccnc4c(C)c2C)CC3)cn1 [Compound 1-61, 8,9-Dimethyl-7-(3-(6-methylpyridin-3-yl)-7,8-dihydro-1,6-naphthyridin-6(5H)-yl)-4H-pyrimido[1,2-b]pyridazin-4-one]	96%	71 nM
Cc1cc2nccc(=O)n2nc1N1CCc2ncc(-c3ccccc3C3(C#N)CC3)cc2C1 [Compound 1-438, 1-(2-(6-(8-methyl-4-oxo-4H-pyrimido[1,2-b]pyridazin-7-yl)-5,6,7,8-tetrahydro-1,6-naphthyridin-3-yl)phenyl)cyclopropane-1-carbonitrile]	45%	3900 nM
Cc1c(N2CCc3ncc(-c4ccc(-n5ccnc5)nc4)cc3C2)nn2c(=O)ccnc2c1C [Compound 1-98, 7-(3-(6-(1H-imidazol-1-yl)pyridin-3-yl)-7,8-dihydro-1,6-naphthyridin-6(5H)-yl)-8,9-dimethyl-4H-pyrimido[1,2-b]pyridazin-4-one]	86%	534 nM
Cc1cc2nccc(=O)n2nc1N1CCc2ncc(-c3ncsc3C)cc2C1 [Compound 1-393, 8-methyl-7-(3-(5-methylthiazol-4-yl)-7,8-dihydro-1,6-naphthyridin-6(5H)-yl)-4H-pyrimido[1,2-b]pyridazin-4-one]	83%	1050 nM
Cc1nc2c(C)c(C)c(N3CCc4ncc(C(F)(F)F)cc4C3)nn2c(=O)c1F [Compound 1-18, 3-fluoro-2,8,9-trimethyl-7-(3-(trifluoromethyl)-7,8-dihydro-1,6-naphthyridin-6(5H)-yl)-4H-pyrimido[1,2-b]pyridazin-4-one]	106%	94 nM
CC(=O)N1CC=C(c2cnc3c(c2)CN(c2nn4c(=O)ccnc4cc2C)CC3)CC1 [Compound 1-388, 7-(3-(1-acetyl-1,2,3,6-tetrahydropyridin-4-yl)-7,8-dihydro-1,6-naphthyridin-6(5H)-yl)-8-methyl-4H-pyrimido[1,2-b]pyridazin-4-one]	61%	1280 nM
Cc1c(N2CCc3ncc(-c4ccc(F)nc4)cc3C2)nn2c(=O)ccnc2c1C [Compound 1-87, 7-(3-(6-Fluoropyridin-3-yl)-7,8-dihydro-1,6-naphthyridin-6(5H)-yl)-8,9-dimethyl-4H-pyrimido[1,2-b]pyridazin-4-one]	82%	128 nM
Cc1cc(=O)n2nc(N3CCc4ncc(C(F)(F)F)cc4C3)c(C)cc2n1 [Compound 1-16, 2,8-dimethyl-7-(3-(trifluoromethyl)-7,8-dihydro-1,6-naphthyridin-6(5H)-yl)-4H-pyrimido[1,2-b]pyridazin-4-one]	71%	340 nM
Cc1cc2nc(C)c(F)c(=O)n2nc1N1CCc2ncc(Nc3ccncc3F)cc2C1 [Compound 2-156, 3-fluoro-7-(3-((3-fluoropyridin-4-yl)amino)-7,8-dihydro-1,6-naphthyridin-6(5H)-yl)-2,8-dimethyl-4H-pyrimido[1,2-b]pyridazin-4-one]	97%	64 nM
Cc1cc2nccc(=O)n2nc1N1CCc2ncc(Cc3cccnc3)cc2C1 [Compound 1-378, 8-methyl-7-(3-(pyridin-3-ylmethyl)-7,8-dihydro-1,6-naphthyridin-6(5H)-yl)-4H-pyrimido[1,2-b]pyridazin-4-one]	83%	898 nM
Cc1c(N2CCc3ncc(-c4cncc(C#N)c4)cc3C2)nn2c(=O)cc(C(F)F)nc2c1C [Compound 1-157, 5-(6-(2-(difluoromethyl)-8,9-dimethyl-4-oxo-4H-pyrimido[1,2-b]pyridazin-7-yl)-5,6,7,8-tetrahydro-1,6-naphthyridin-3-yl)nicotinonitrile]	100%	426 nM
Cc1ccc(-c2cnc3c(c2)CN(c2nn4c(=O)cc(C(C)C)nc4c(C)c2C)CC3)cn1 [Compound 1-108, 2-isopropyl-8,9-dimethyl-7-(3-(6-methylpyridin-3-yl)-7,8-dihydro-1,6-naphthyridin-6(5H)-yl)-4H-pyrimido[1,2-b]pyridazin-4-one]	94%	158 nM
Cc1cc2nccc(=O)n2nc1N1CCc2ncc(-c3cccc(Cl)c3C)cc2C1 [Compound 1-441, 7-(3-(3-chloro-2-methylphenyl)-7,8-dihydro-1,6-naphthyridin-6(5H)-yl)-8-methyl-4H-pyrimido[1,2-b]pyridazin-4-one]	78%	606 nM
COc1ccc(-c2cnc3c(c2)CN(c2nn4c(=O)cc(C(F)F)nc4c(C)c2C)CC3)cn1 [Compound 1-170, 2-(difluoromethyl)-7-(3-(6-methoxypyridin-3-yl)-7,8-dihydro-1,6-naphthyridin-6(5H)-yl)-8,9-dimethyl-4H-pyrimido[1,2-b]pyridazin-4-one]	95%	185 nM
Cc1cc2nc(C)c(Cl)c(=O)n2nc1N1CCc2ncc(C(F)(F)F)cc2C1 [Compound 1-28, 3-chloro-2,8-dimethyl-7-(3-(trifluoromethyl)-7,8-dihydro-1,6-naphthyridin-6(5H)-yl)-4H-pyrimido[1,2-b]pyridazin-4-one]	86%	40 nM
Cc1cc2nccc(=O)n2nc1N1CCc2ncc(-c3ccc(Cl)nn3)cc2C1 [Compound 1-334, 7-(3-(6-chloropyridazin-3-yl)-7,8-dihydro-1,6-naphthyridin-6(5H)-yl)-8-methyl-4H-pyrimido [1,2-b]pyridazin-4-one]	45%	1230 nM
Cc1cc2nc(C(F)F)cc(=O)n2nc1N1CCc2ncc(Nc3ccncc3F)cc2C1 [Compound 2-159, 2-(difluoromethyl)-7-(3-((3-fluoropyridin-4-yl)amino)-7,8-dihydro-1,6-naphthyridin-6(5H)-yl)-8-methyl-4H-pyrimido[1,2-b]pyridazin-4-one]	94%	1 nM
COCc1cc(=O)n2nc(N3CCc4ncc(-c5ccc(C)nc5)cc4C3)c(C)cc2n1 [Compound 1-314, 2-(methoxymethyl)-8-methyl-7-(3-(6-methylpyridin-3-yl)-7,8-dihydro-1,6-naphthyridin-6(5H)-yl)-4H-pyrimido[1,2-b]pyridazin-4-one]	96%	109 nM
